Tests used:
[1] = tested on: sorted CD4+ PE and FITC TCRVβ+ TILs; test: Proliferation of TCRBV-sorted CD4+ TILs (without TCRBV6.1 and TCRBV6.2); format: cell-based, human; conditions: sheet 6b
From the text: TILs expressing specific TCRBVs were isolated from bulk TILs using a panel of 22 fluorescently labelled TCRBV antibodies that detect 27 different TCRBVs. Twelve TCRBV antibodies were labelled with PE and 10 with FITC (Beckman Coulter). […] After another wash, cells were stained with CD4 (1:100) (APC anti-human CD4, eBioscience), CD8 (1:100) (Pacific blue anti-human CD8, BioLegend), TCRBV-PE (1:25) (Beckman Coulter) and TCRBV-FITC (1:25) (Beckman Coulter) antibodies (Supplementary Table 12) for 30 min. Finally, cells were sorted, seeded at 5 × 10^4 cells per well in T cell medium without h-IL-2 and rested for 1 day before stimulation with 2 × 10^5 cells per well of irradiated autologous PBMCs (45 Gy) and peptide (10 µM).
Two populations of CD4^+ PE-TCRVβ^+ and CD4^+ FITC-TCRVβ^+ were sorted and later mixed together. […] Specific amount of each cytokine/chemokine (pg/ml) was calculated by subtracting the cytokines in the negative control cultures (no peptide control). Source data

TCC75 = test: Cytokine/chemokine secretion of TCC75; format: cell-based, human; conditions: 3 days; Extended Data Fig. 5e
[2] = tested on: bulk TILs (patient 1635WI); test: Cytokine and chemokine secretion of bulk TILs stimulated with IPdBPs; format: cell-based, human; set-up: key to CD40 Ligand / Flt-3 Ligand / GM-CSF / Granzyme B / IFN-α / IFN-γ / IL-1rα / IL-1α / IL-1β / IL-2 / IL-3 / IL-4 / IL-5 / IL-6 / IL-7 / IL-10 / IL-12p70 / IL-13 / IL-15 / IL-17A / IL-33 / TNF-α / RANTES: pg/mL, negative-control amount subtracted; CXCL2/GROβ / CXCL10/IP-10 / CCL2/MCP-1 / CCL3/MIP-1α / CCL4/MIP-1β: unit not given beside the values; conditions: secretion by bulk TILs after peptide stimulation; sheet 1e
From the text: Fig. 1 Elution of HLA class II-presented bacterial peptides from 19 glioblastomas and the stimulatory effect of IPdBPs on bulk TILs. a, Schematic of the immunopeptidome analyses of glioblastoma tissue, from which eluted peptides were annotated using the UniProt bacteria database (1). TILs or peripheral memory T cells were stimulated with IPdBPs (2 and 3). LC–MS, liquid chromatography–mass spectrometry; PBMC, peripheral blood mononuclear cell. The images in panel a were created using BioRender (https://biorender.com). b, Number of unique IPdBPs in patients with glioblastoma (n = 19) (data from patient 1635WI contains both primary and recurrent tumours together), with 344 unique IPdBPs identified (left). These peptides originated from 255 and 199 unique proteins and bacteria, respectively (3 technical replicates). […] As a control, peptidome data were also annotated using human protein database to identify eluted self-peptides. As shown, most of HLA class II-bound peptides are self-(human) peptides. IPdBPs of primary (bottom left, n = 18) and recurrent (bottom right, n = 23) tumours were separately annotated to their source bacteria at the phylum level. d, Bulk TILs (patient 1635WI) were stimulated with IPdBPs (See Supplementary Table 8), each in five replicate wells, and proliferation was measured after 5 days via ^3H-thymidine incorporation. […] The data are expressed as the mean value of all wells ± s.e.m. SIN3A* peptide was used as a positive control as TILs recognize this tumour antigen. T cells with APCs without any stimuli were used as a negative control. e, Heatmap of cytokine and chemokine secretion of TILs stimulated with three IPdBPs, which weakly stimulated proliferation. The secretion of each cytokine and chemokine was calculated by subtracting the corresponding cytokine and chemokine amount (pg ml^−1) of the negative control. TILs with APCs without any stimuli were used as a negative control. Also see Extended Data Fig. 1. Source data
(§1) Supernatants from each experiment were harvested a day before adding thymidine and frozen at −20 °C. Cytokines were measured using ELISA for human IFNγ ELISA MAX (BioLegend), human GM-CSF DuoSet ELISA (R&D Systems) and bead-based assays. A Synergy H1 hybrid multi-mode reader (Agilent) was used to measure the absorbance. The LEGENDplex Multi-analyte Flow Assay kit (BioLegend) is a 13-plex human TH cytokine panel, which includes IFNγ, TNF, IL-2, IL-4, IL-5, IL-6, IL-9, IL-10, IL-13, IL-17A, IL-17F, IL-21 and IL-22. […] LSR Fortessa Flow Cytometer (BD Biosciences) was used to measure cytokines, and data were analysed using FlowJo (Tree Star). The Human XL Cytokine Luminex Performance Assay Fixed Panel (R&D Systems) contains 45 analytes covering a broad range of various chemokines and cytokines.

TCC2D3 = conditions: 3 h
TCC88 [3] = conditions: BLS-DRB3*02:02 as APCs; 3 days; SI ≥ 2 positive
TCC88 [4] = test: Cytokine and chemokine secretion of TCC88 after peptide stimulation; format: cell-based, human; conditions: TCC88 supernatant after peptide stimulation; no peptide control subtracted; Fig. 3e
From the text: Fig. 3 Bacteria-derived and microbiota-derived peptides can stimulate TCC88 as well as the tumour antigen. a, Peptides with the highest predicted stimulatory scores were identified by searching various databases (see Methods). Numbers of unique 10-mer peptides within each database, synthesized peptides, TCC88 stimulatory peptides and the corresponding percentage of stimulatory peptides within each database are shown. […] Cytokine and chemokine secretion of TCC88 was examined and compared upon stimulation with these three different antigens. A specific amount of each cytokine and chemokine (pg ml^−1) was calculated by subtracting the cytokines in the negative control cultures (no peptide control). f, Cytotoxicity of TCC88 against the autologous tumour cell line after stimulation with 2 µM of SIN3A* and HGM3 (data represent the mean percentage of two replicate wells). E:T, effector to target. g, TCC88 was tested with HGM3 (10 µM) or SIN3A* (10 µM) peptides or both together (each 10 µM), and ^3H-thymidine incorporation was measured after 3 days (data represent the mean SI value of three replicate wells ± s.e.m.). Also see Extended Data Figs. 3 and 4. Source data
as §1

## QLEFNHAIAS [HB2, UniProt bacteria database peptide]
[1]; replicate 1
  Proliferation (SI) of sorted CD4+ TILs: 1.556
[1]; replicate 2
  Proliferation (SI) of sorted CD4+ TILs: 1.363
[1]; replicate 3
  Proliferation (SI) of sorted CD4+ TILs: 1.455

## LWEFNNVSLA [HB4, UniProt bacteria database peptide]
[1]; replicate 1
  Proliferation (SI) of sorted CD4+ TILs: 1.585
[1]; replicate 2
  Proliferation (SI) of sorted CD4+ TILs: 1.003
[1]; replicate 3
  Proliferation (SI) of sorted CD4+ TILs: 1.832

## Ac-VWEFNHSLHP-NH2 [HGM27]
TCC75
  cytokine and chemokine profile of TCC75 (in words): secretes pro-inflammatory cytokines
[1]; replicate 1
  Proliferation (SI) of sorted CD4+ TILs: 2.099
[1]; replicate 2
  Proliferation (SI) of sorted CD4+ TILs: 2.919
[1]; replicate 3
  Proliferation (SI) of sorted CD4+ TILs: 2.416

## LYEFNHSPGF [HGM7, human gut microbiota peptide]
[1]; replicate 1
  Proliferation (SI) of sorted CD4+ TILs: 2.804
[1]; replicate 2
  Proliferation (SI) of sorted CD4+ TILs: 1.758
[1]; replicate 3
  Proliferation (SI) of sorted CD4+ TILs: 3.368

## QALVTLEENAVIG [Peptidome.Bac 14]
[2]
  CCL2/MCP-1: 351.37
  CCL3/MIP-1α: 23.58
  CCL4/MIP-1β: 78.06
  CCL11/Eotaxin: 0
  CCL19/MIP-3β: 2.57
  CCL20/MIP-3α: 4.22
  CD40 Ligand: 666.28
  CXCL1/GROα: 68.11
  CXCL2/GROβ: 60.34
  CXCL8/IL-8: 917.52
  CXCL10/IP-10: 111.72
  Flt-3 Ligand: 48.51
  GM-CSF: 38.36
  Granzyme B: 0
  IFN-α: 0
  IFN-γ: 8.17
  IL-1rα: 700.66
  IL-1α: 0
  IL-1β: 0
  IL-2: 2.34
  IL-3: 0.97
  IL-4: 0
  IL-5: 0
  IL-6: 110.14
  IL-7: 0.64
  IL-10: 11.57
  IL-12p70: 0
  IL-13: 23.19
  IL-15: 0.56
  IL-17A: 0
  IL-17E/IL-25: 0
  IL-33: 4.57
  RANTES: 0
  TNF-α: 26.86

## Ac-KEDMSVPLIKSIRK-NH2 [Pep-bac10]
TCC2D3
  SI: TCC2D3: 2.2

## LVDFFHSSAI [HGM32]
TCC88 [3]
  recognition by TCC88, proliferation (in words): stimulatory

## Ac-AVVTQPDK-NH2 [Pep-bac9]
TCC2D3
  SI: TCC2D3: 2.5

## VFAIDRAGLVGEDGPT [Peptidome.Bac 5]
[2]
  CCL2/MCP-1: 40.48
  CCL3/MIP-1α: 7.07
  CCL4/MIP-1β: 0
  CCL11/Eotaxin: 0
  CCL19/MIP-3β: 0
  CCL20/MIP-3α: 0
  CD40 Ligand: 0
  CXCL1/GROα: 0
  CXCL2/GROβ: 5.86
  CXCL8/IL-8: 0
  CXCL10/IP-10: 62.72
  Flt-3 Ligand: 1.13
  GM-CSF: 16.51
  Granzyme B: 0
  IFN-α: 0
  IFN-γ: 0
  IL-1rα: 212.62
  IL-1α: 0
  IL-1β: 0
  IL-2: 0
  IL-3: 0
  IL-4: 0
  IL-5: 0
  IL-6: 8.61
  IL-7: 0.34
  IL-10: 0
  IL-12p70: 0
  IL-13: 16.57
  IL-15: 0
  IL-17A: 0
  IL-17E/IL-25: 0
  IL-33: 0
  RANTES: 0
  TNF-α: 24.29

## LLDFNHSMVN [HGM26, human gut microbiota peptide]
[1]; replicate 1
  Proliferation (SI) of sorted CD4+ TILs: 1.889
[1]; replicate 2
  Proliferation (SI) of sorted CD4+ TILs: 1.31
[1]; replicate 3
  Proliferation (SI) of sorted CD4+ TILs: 1.491

## AGPVVAAAVILKEDC [Peptidome.Bac 7]
[2]
  CCL2/MCP-1: 11.43
  CCL3/MIP-1α: 1
  CCL4/MIP-1β: 0
  CCL11/Eotaxin: 0
  CCL19/MIP-3β: 2.91
  CCL20/MIP-3α: 3.7
  CD40 Ligand: 994.39
  CXCL1/GROα: 4.06
  CXCL2/GROβ: 18.18
  CXCL8/IL-8: 0
  CXCL10/IP-10: 68.01
  Flt-3 Ligand: 8.98
  GM-CSF: 20.54
  Granzyme B: 0
  IFN-α: 0
  IFN-γ: 18.67
  IL-1rα: 382.82
  IL-1α: 0
  IL-1β: 0
  IL-2: 0
  IL-3: 10.62
  IL-4: 0
  IL-5: 0
  IL-6: 16.87
  IL-7: 1.18
  IL-10: 11.57
  IL-12p70: 2.8
  IL-13: 7.47
  IL-15: 0.56
  IL-17A: 0
  IL-17E/IL-25: 0
  IL-33: 0
  RANTES: 0
  TNF-α: 9.2

## LIVFNHNCLK [HB84, UniProt bacteria database peptide]
TCC88 [4]
  CCL20/MIP-3α: 8.75 pg/mL
  CD40 Ligand: 1473.06 pg/mL
  CXCL1/GROα: 73.57 pg/mL
  CXCL2/GROβ: 49.19 pg/mL
  CXCL8/IL-8: 0 pg/mL
  CXCL10/IP-10: 104.46 pg/mL
  Flt-3 Ligand: 100.29 pg/mL
  Fractalkine: 347.74 pg/mL
  GM-CSF: 5082.78 pg/mL
  Granzyme B: 2479.01 pg/mL
  IFN-α: 2.75 pg/mL
  IFN-γ: 910.88 pg/mL
  IL-1rα: 520.19 pg/mL
  IL-1α: 12.29 pg/mL
  IL-1β: 17.01 pg/mL
  IL-2: 167.02 pg/mL
  IL-3: 131.91 pg/mL
  IL-4: 71.31 pg/mL
  IL-5: 29.89 pg/mL
  IL-6: 102.19 pg/mL
  IL-7: 0.74 pg/mL
  IL-10: 2358.6 pg/mL
  IL-12p70: 19.71 pg/mL
  IL-13: 1338.92 pg/mL
  IL-15: 2.33 pg/mL
  IL-17A: 1.97 pg/mL
  IL-17E/IL-25: 0 pg/mL
  IL-33: 15.02 pg/mL
  TNF-α: 3267.52 pg/mL

## Ac-VFDFNHSAIK-NH2 [HGM62]
[1]; replicate 1
  Proliferation (SI) of sorted CD4+ TILs: 1.423
[1]; replicate 2
  Proliferation (SI) of sorted CD4+ TILs: 1.043
[1]; replicate 3
  Proliferation (SI) of sorted CD4+ TILs: 2.568

## Ac-SNGDLDAIVVARAGLA-NH2 [Pep-bac16]
TCC2D3
  SI: TCC2D3: 2.2
